Key:
Assay in all cases: relative viability (nuclei count vs DMSO), 5 days (fraction); higher = more cells survive
Pictilisib + Trametinib = compound: CS(=O)(=O)N1CCN(Cc2cc3nc(-c4cccc5[nH]ncc45)nc(N4CCOCC4)c3s2)CC1 [Pictilisib] + CC(=O)Nc1cccc(-n2c(=O)n(C3CC3)c(=O)c3c(Nc4ccc(I)cc4F)n(C)c(=O)c(C)c32)c1 [Trametinib] (partner 0.02 µM)
How it was run: (§1)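 Relative viability was taken as the ratio of nuclei in treated wells to nuclei in vehicle wells. Lung cancer cell lines in 1536-well plates received compounds by pin tool one day after seeding, either one drug alone or a fixed anchor-drug dose plus five library-drug doses (not always all listed) in √10 steps. Nuclei were counted on 4× images after 5 days of treatment, and values are medians of duplicate plates.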

Pictilisib + Olaparib = compound: CS(=O)(=O)N1CCN(Cc2cc3nc(-c4cccc5[nH]ncc45)nc(N4CCOCC4)c3s2)CC1 [Pictilisib] + O=C(c1cc(Cc2n[nH]c(=O)c3ccccc23)ccc1F)N1CCN(C(=O)C2CC2)CC1 [Olaparib] (partner 8 µM)
How it was run: as §1

MK-2206 + Palbociclib = compound: NC1(c2ccc(-c3nc4ccn5c(=O)[nH]nc5c4cc3-c3ccccc3)cc2)CCC1 [MK-2206] + CC(=O)c1c(C)c2cnc(Nc3ccc(N4CCNCC4)cn3)nc2n(C2CCCC2)c1=O [Palbociclib] (partner 0.5 µM)
How it was run: as §1

MK-2206 + Linsitinib = compound: NC1(c2ccc(-c3nc4ccn5c(=O)[nH]nc5c4cc3-c3ccccc3)cc2)CCC1 [MK-2206] + C[C@]1(O)C[C@@H](c2nc(-c3ccc4ccc(-c5ccccc5)nc4c3)c3c(N)nccn32)C1 [Linsitinib] (partner 1 µM)
How it was run: as §1

MK-2206 + Decitabine = compound: NC1(c2ccc(-c3nc4ccn5c(=O)[nH]nc5c4cc3-c3ccccc3)cc2)CCC1 [MK-2206] + Nc1ncn([C@H]2C[C@H](O)[C@@H](CO)O2)c(=O)n1 [Decitabine] (partner 2 µM)
How it was run: as §1

Cell Line	relative viability (Pictilisib + Trametinib; first compound 0.02 µM)	relative viability (Pictilisib + Trametinib; first compound 0.06325 µM)	relative viability (Pictilisib + Trametinib; first compound 0.6325 µM)	relative viability (Pictilisib + Trametinib; first compound 2 µM)	relative viability (Pictilisib + Olaparib; first compound 0.02 µM)	relative viability (Pictilisib + Olaparib; first compound 0.06325 µM)	relative viability (Pictilisib + Olaparib; first compound 0.6325 µM)	relative viability (Pictilisib + Olaparib; first compound 2 µM)	relative viability (MK-2206 + Palbociclib; first compound 0.01 µM)	relative viability (MK-2206 + Palbociclib; first compound 0.03162 µM)	relative viability (MK-2206 + Palbociclib; first compound 0.3162 µM)	relative viability (MK-2206 + Palbociclib; first compound 1 µM)	relative viability (MK-2206 + Linsitinib; first compound 0.01 µM)	relative viability (MK-2206 + Linsitinib; first compound 0.03162 µM)	relative viability (MK-2206 + Linsitinib; first compound 0.3162 µM)	relative viability (MK-2206 + Linsitinib; first compound 1 µM)	relative viability (MK-2206 + Decitabine; first compound 0.01 µM)	relative viability (MK-2206 + Decitabine; first compound 0.03162 µM)	relative viability (MK-2206 + Decitabine; first compound 0.3162 µM)	relative viability (MK-2206 + Decitabine; first compound 1 µM)
EMC-BAC-2	0.863	0.869	0.685	0.513	0.513	0.52	0.407	0.334	0.511	0.517	0.462	0.456	0.811	0.821	0.769	0.748	0.98	0.956	0.939	0.829
NCI-H441	0.462	0.521	0.258	0.195	0.653	0.606	0.493	0.346	0.226	0.206	0.207	0.167	0.674	0.579	0.435	0.415	0.248	0.251	0.206	0.234
LCLC-103H	0.649	0.711	0.501	0.558	0.722	0.851	0.701	0.475	0.496	0.499	0.461	0.462	1.08	1.07	1	1.12	0.721	0.755	0.735	0.691
HOP-62	0.396	0.356	0.332	0.178	0.389	0.556	0.512	0.446	0.407	0.468	0.452	0.485	0.783	0.757	1.01	0.998	0.202	0.227	0.237	0.255
NCI-H1793	0.397	0.448	0.332	0.211	0.812	0.613	0.331	0.167	0.277	0.329	0.272	0.252	0.81	0.886	0.641	0.675	0.477	0.552	0.439	0.435
NCI-H1355	0.4	0.343	0.295	0.198	0.718	0.727	0.651	0.413	0.39	0.392	0.362	0.329	0.768	0.805	0.726	0.786	0.347	0.362	0.379	0.345
COR-L23	0.596	0.582	0.384	0.285	0.316	0.319	0.337	0.327	0.277	0.312	0.268	0.291	0.909	0.996	1	0.693	0.411	0.417	0.421	0.388
HCC-44	0.896	1.03	1.01	0.643	1.02	1.06	1.12	0.915	0.918	0.938	0.974	0.946	0.662	0.652	0.556	0.445	0.959	0.968	0.934	0.908
A-427	0.733	0.716	0.505	0.287	0.721	0.712	0.71	0.552	0.512	0.585	0.507	0.524	1.13	1.09	1.14	1.17	0.6	0.603	0.562	0.567
NCI-H520	0.57	0.64	0.215	0.14	0.387	0.323	0.186	0.118	0.215	0.218	0.153	0.149	1.13	0.933	0.52	0.542	0.489	0.527	0.264	0.212
LXF-289	0.693	0.691	0.705	0.385	1.1	1.14	1.03	0.631	0.581	0.628	0.594	0.576	0.954	0.988	0.966	0.99	0.398	0.418	0.412	0.396
NCI-H2087	0.204	0.165	0.138	0.153	0.537	0.477	0.493	0.345	0.225	0.226	0.184	0.217	0.965	0.906	0.791	0.914	0.244	0.273	0.24	0.196
PC-14	0.749	0.761	0.537	0.196	0.385	0.39	0.442	0.341	0.512	0.481	0.589	0.474	0.869	1.03	0.862	0.92	0.22	0.248	0.215	0.253
NCI-H1915	0.322	0.295	0.285	0.244	0.257	0.277	0.28	0.225	0.594	0.612	0.499	0.505	1.12	1.07	1.04	1.09	0.263	0.252	0.264	0.251
NCI-H647	0.554	0.464	0.307	0.126	0.661	0.659	0.411	0.219	0.389	0.403	0.349	0.264	1.18	1.1	1.07	1.03	0.39	0.365	0.414	0.408
